Measurements as given in publication PMC11584170 (ACS chemical biology, 2023).

Key:
[1] = target: T1, ERRα (Homo sapiens, UniProt P11474); experiment: full-length ERR cell-based cotransfection/reporter assay in HEK293 cells
T1 sequence (P11474 1-423): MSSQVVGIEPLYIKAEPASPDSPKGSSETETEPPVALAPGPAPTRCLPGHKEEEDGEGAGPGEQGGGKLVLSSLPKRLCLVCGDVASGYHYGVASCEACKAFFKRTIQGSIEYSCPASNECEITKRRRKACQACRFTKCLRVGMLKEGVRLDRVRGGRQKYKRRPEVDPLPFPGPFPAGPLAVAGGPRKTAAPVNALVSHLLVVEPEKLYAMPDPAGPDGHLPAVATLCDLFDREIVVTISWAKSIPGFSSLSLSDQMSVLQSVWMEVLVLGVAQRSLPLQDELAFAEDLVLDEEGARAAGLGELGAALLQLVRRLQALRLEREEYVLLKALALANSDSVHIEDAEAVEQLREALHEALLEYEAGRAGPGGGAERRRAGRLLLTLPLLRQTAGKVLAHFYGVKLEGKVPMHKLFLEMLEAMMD

[2] = target: T2, ERRβ (Homo sapiens, UniProt O95718); experiment: as above; settings: read-out: ERRβ EC50
T2 sequence (O95718 1-433): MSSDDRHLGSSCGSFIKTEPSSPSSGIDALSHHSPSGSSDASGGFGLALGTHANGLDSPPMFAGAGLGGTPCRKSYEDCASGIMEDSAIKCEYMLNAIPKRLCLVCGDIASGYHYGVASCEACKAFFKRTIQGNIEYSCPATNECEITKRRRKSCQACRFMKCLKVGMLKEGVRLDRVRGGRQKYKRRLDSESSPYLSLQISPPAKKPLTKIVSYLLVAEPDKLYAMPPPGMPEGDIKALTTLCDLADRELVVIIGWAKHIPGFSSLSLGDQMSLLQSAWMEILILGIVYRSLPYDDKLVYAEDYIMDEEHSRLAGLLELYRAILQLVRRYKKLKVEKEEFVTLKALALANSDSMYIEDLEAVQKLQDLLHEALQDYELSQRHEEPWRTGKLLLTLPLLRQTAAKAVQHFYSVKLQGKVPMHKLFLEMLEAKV

[3] = test system: Gal4-ERR LBD; experiment: Gal4-ERR LBD chimeric cotransfection assay; format: cell-based
[4] = target: T3, ERRγ LBD (Homo sapiens, UniProt P62508); experiment: differential scanning fluorimetry; settings: direct binding
T3 sequence (P62508 233-457 limits assumed): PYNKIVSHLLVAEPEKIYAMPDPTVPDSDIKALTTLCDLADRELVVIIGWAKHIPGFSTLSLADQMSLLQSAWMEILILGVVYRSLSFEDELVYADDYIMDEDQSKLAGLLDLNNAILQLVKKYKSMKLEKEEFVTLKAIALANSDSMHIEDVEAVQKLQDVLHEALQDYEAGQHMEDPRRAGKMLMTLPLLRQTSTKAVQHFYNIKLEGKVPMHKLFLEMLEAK

[5] = test system: C2C12 cells; experiment: ERR target gene; format: cell-based, mouse; settings: C2C12, 24 h dose-response
[6] = test system: C2C12 cells; experiment: MitoTracker Red staining of C2C12 cells; format: cell-based, mouse; settings: proliferating C2C12, 10 μM, 24 h
[7] = tolerability in mice, 10 days dosing; format: in vivo
[8] = test system: C57BL/6J mice; experiment: chronic treatment, skeletal muscle histology and protein/gene expression; format: in vivo
[9] = test system: C57BL6/J mice; experiment: exercise until exhaustion on rodent treadmill, WT mice; format: in vivo; settings: sedentary mice, 7 days b.i.d. i.p. 50 mg/kg, run to exhaustion
[10] = test system: mice; experiment: grip strength test; format: in vivo; settings: sedentary mice, 50 mg/kg, 2 weeks
[11] = test system: mice; experiment: circadian locomotor activity; format: in vivo; settings: drug treatment
[12] = test system: C57BL/6J male mice; experiment: acute single dose, Ddit4 and Slc25a25 expression in skeletal muscle; format: in vivo
[13] = test system: C2C12 cells; experiment: Ddit4 gene expression in C2C12 myoblast cell line; format: cell-based, mouse; settings: C2C12, 10 μM, 1 or 3 h
[14] = test system: primary mouse myocytes; experiment: Ddit4 and Slc25a25 expression in primary myocytes; format: cell-based
[15] = test system: mERRα fl/fl and mERRα−/− mice; experiment: exercise endurance in muscle-specific ERRα KO mice; format: in vivo
[16] = model of heart failure ref 38; cited from earlier work
[17] = target: T4, ERRγ (Homo sapiens, UniProt P62508); experiment: full-length ERR cell-based cotransfection/reporter assay in HEK293 cells; settings: full-length ERR cotransfection
T4 sequence (P62508 1-458): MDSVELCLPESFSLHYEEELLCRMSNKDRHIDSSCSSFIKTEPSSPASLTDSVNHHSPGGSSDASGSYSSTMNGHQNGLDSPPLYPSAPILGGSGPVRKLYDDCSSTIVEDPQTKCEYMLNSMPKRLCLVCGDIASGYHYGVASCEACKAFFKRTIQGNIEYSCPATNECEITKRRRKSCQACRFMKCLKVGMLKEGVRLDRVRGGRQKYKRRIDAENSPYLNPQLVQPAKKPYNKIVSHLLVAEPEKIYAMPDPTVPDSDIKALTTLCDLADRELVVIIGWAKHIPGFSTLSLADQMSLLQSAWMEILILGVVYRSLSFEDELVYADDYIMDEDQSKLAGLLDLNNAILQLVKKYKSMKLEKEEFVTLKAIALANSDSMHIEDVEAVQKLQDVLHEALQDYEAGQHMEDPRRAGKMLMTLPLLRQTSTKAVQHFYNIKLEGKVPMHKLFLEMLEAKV

[18] = 50 mg/kg b.i.d., gastrocnemius muscle
[19] = 14 days b.i.d., i.p, 50 mg/kg, exercise until exhaustion
[20] = quadricep, not induced in mERRα−/−

CC(C)c1ccc(/C=N/NC(=O)c2ccc(O)cc2)cc1 [GSK4716]
ERRα agonist activity ([1]; ERR cotransfection assay): very weak agonist activity | EC50 ([1]; read-out: ERRα EC50, full-length ERR, HEK293): > 5 µM | EC50 [2]: > 5 µM

O=C(N/N=C/c1ccc2ccccc2c1)c1ccc(O)cc1 [SLU-PP-332, (E)-4-Hydroxy-N′-(naphthalen-2-ylmethylene)benzohydrazide]
activity at ERRs [3]: displayed activity at all ERRs | thermal stability of purified ERRγ LBD [4]: dose-dependently increased the thermal stability | expression of Pdk4 [5]: clear increase | mitochondrial biogenesis (MitoTracker Red) [6]: substantially induced | complete blood count and electrolyte levels ([7]; 50 mg/kg b.i.d., i.p., 10 days): normal | overt toxicity ([7]; 50 mg/kg b.i.d., i.p., 10 days): no overt toxicity | serum creatine kinase ([7]; skeletal muscle toxicity marker): no significant alterations | oxidative muscle phenotype (SDH staining) ([8]; 50 mg/kg b.i.d. i.p., 15 days, quadricep): greater SDH staining | myofiber diameter (laminin staining) ([8]; 50 mg/kg b.i.d., 15 days): smaller in diameter | complex I (NDUFB8) and complex V (ATP5A) expression [8, 18]: increase | cytochrome c protein expression [8, 18]: increase | Myosin IIA protein (western blot) ([8]; quadriceps): increased expression | expression of Myh6 ([8]; quadriceps): increase | oxidative type IIa muscle fibers ([8]; quadriceps, 50 mg/kg b.i.d.): increased | mitochondria content (electron micrographs of quadriceps) ([8]; vs vehicle-treated): increase | increase in running distance vs vehicle [9]: ~45% | increase in running time vs vehicle [9]: ~70% | grip strength [10]: increase | circadian locomotor activity [11]: no alterations | DDIT4 protein expression level ([12]; quadricep muscle, 3 h post 50 mg/kg i.p.): 3.5 × | increase in Ddit4 expression ([12]; sedentary mice, single dose 50 mg/kg i.p., 1 h): ~3 fold | increase in Ddit4 expression, drug plus exercise ([12]; single dose 50 mg/kg i.p. and treadmill run, 1 h): ~11 fold | increase in Slc25a25 expression ([12]; single dose 50 mg/kg i.p., 1 h): 11 fold | Ddit4 gene expression [13]: induced | effect on Ddit4 expression in ERRα or ERRα/γ null myocytes ([14]; 1 μM, 2 h): lost | effect on Ddit4 expression in ERRγ null myocytes ([14]; 1 μM, 2 h): retained | Ddit4 expression, 2 h ([14]; primary mouse myocytes, 1 μM, 2 h): induced | Ddit4 induction, 24 h ([14]; primary mouse myocytes, 1 μM, 24 h): not observed | expression of Slc25a25 ([14]; primary myocytes, 1 μM, 2 h): induced | ERRα dependence of Slc25a25 responsiveness ([14]; primary myocytes, WT vs KO): completely ERRα-dependent | exercise endurance, mERRα fl/fl mice [15, 19]: significantly enhanced exercise endurance | exercise endurance, mERRα−/− mice [15, 19]: equivalent to vehicle-treated | upregulation of Ddit4 in quadriceps ([15]; mERRα fl/fl vs mERRα−/− mice): observed only in mERRα^fl/fl | Alas2 expression, mERRα fl/fl mice [15, 20]: significantly induced | Per1 expression, mERRα fl/fl mice [15, 20]: significantly induced | improving heart function [16]: very effective

CC/C(=C(\c1ccc(O)cc1)c1ccc(OCCN(C)C)cc1)c1ccccc1 [4-hydroXytamoXifen]
inhibition of ERRγ constitutive activity [17]: ~75%
